The source made the active and inactive calls. No cut-off for these calls is given here.
Assays:
Estrogen receptor [1] = molecular target: T1, Estrogen receptor (Homo sapiens, UniProt Q92731+P03372); settings: mcf-7
Description: Antagonist effect in breast tissue was assayed by inhibition of estrogen stimulated MCF-7 cell proliferation

Estrogen receptor [2] = molecular target: T1, Estrogen receptor; assay: Displacement of [3H]estradiol from estrogen receptor in MCF-7 cell lysate; Inactive; assay type: cell-free

Row | IC50 (Estrogen receptor [1]) [nM] | Relative binding affinity (Estrogen receptor [2]) | SMILES
1 | 20 |  | C#Cc1ccc2c(C(=O)c3ccc(OCCN4CCCCC4)cc3)c(-c3ccc(O)cc3)sc2c1
2 | 1000 |  | NC(=O)c1ccc2c(C(=O)c3ccc(OCCN4CCCCC4)cc3)c(-c3ccc(O)cc3)sc2c1
3 | 40 |  | CCCCOC(=O)c1ccc2c(C(=O)c3ccc(OCCN4CCCCC4)cc3)c(-c3ccc(O)cc3)sc2c1
4 | 8 |  | N#Cc1ccc(-c2sc3cc(O)ccc3c2C(=O)c2ccc(OCCN3CCCCC3)cc2)cc1
5 | 200 |  | NC(=O)c1ccc(-c2sc3cc(O)ccc3c2C(=O)c2ccc(OCCN3CCCCC3)cc2)cc1
6 | 325 |  | O=C(O)c1ccc(-c2sc3cc(O)ccc3c2C(=O)c2ccc(OCCN3CCCCC3)cc2)cc1
7 | 1000 | inactive | COC(=O)c1ccc(-c2sc3ccccc3c2C(=O)c2ccc(OCCN3CCCCC3)cc2)cc1
8 | 20 |  | CN(C)C(=O)c1ccc(-c2sc3cc(O)ccc3c2C(=O)c2ccc(OCCN3CCCCC3)cc2)cc1
9 | 0.8 |  | C#Cc1ccc(-c2sc3cc(O)ccc3c2C(=O)c2ccc(OCCN3CCCCC3)cc2)cc1
10 | 7 |  | C=Cc1ccc(-c2sc3cc(O)ccc3c2C(=O)c2ccc(OCCN3CCCCC3)cc2)cc1
11 | 32 |  | CC(=O)c1ccc(-c2sc3cc(O)ccc3c2C(=O)c2ccc(OCCN3CCCCC3)cc2)cc1
12 | 50 |  | COC(=O)c1ccc(-c2sc3cc(O)ccc3c2C(=O)c2ccc(OCCN3CCCCC3)cc2)cc1
13 | 210 |  | CCOP(=O)(OCC)c1ccc(-c2sc3cc(O)ccc3c2C(=O)c2ccc(OCCN3CCCCC3)cc2)cc1
14 | 40 |  | CC(C)COC(=O)c1ccc2c(C(=O)c3ccc(OCCN4CCCCC4)cc3)c(-c3ccc(O)cc3)sc2c1
15 | 50 |  | CCOC(=O)c1ccc(-c2sc3cc(O)ccc3c2C(=O)c2ccc(OCCN3CCCCC3)cc2)cc1
16 | 30 |  | COC(=O)c1ccc2c(C(=O)c3ccc(OCCN4CCCCC4)cc3)c(-c3ccc(O)cc3)sc2c1
17 | 40 |  | CNC(=O)c1ccc(-c2sc3cc(O)ccc3c2C(=O)c2ccc(OCCN3CCCCC3)cc2)cc1
18 | 60 |  | CC(=O)c1ccc2c(C(=O)c3ccc(OCCN4CCCCC4)cc3)c(-c3ccc(O)cc3)sc2c1
19 | 1000 |  | COC(=O)c1ccc2c(C(=O)c3ccc(OCCN4CCCCC4)cc3)c(-c3ccccc3)sc2c1
20 |  | inactive | O=C(O)c1ccc2c(C(=O)c3ccc(OCCN4CCCCC4)cc3)c(-c3ccc(O)cc3)sc2c1
21 | 200 |  | CCOP(=O)(OCC)c1ccc2c(C(=O)c3ccc(OCCN4CCCCC4)cc3)c(-c3ccc(O)cc3)sc2c1
22 | 1000 |  | COC(=O)c1ccc(-c2sc3cc(C(=O)OC)ccc3c2C(=O)c2ccc(OCCN3CCCCC3)cc2)cc1

From ChEMBL document CHEMBL1129893 (Bioorg Med Chem Lett, 1997)
